# Experimental data from patent US11046991B2, “Rapid preconcentration of viable bacteria using magnetic ionic liquid for PCR amplification and culture-based diagnostics” (priority 2017, dated 2021).
# Tests used:
# [1] = Viscosity, cone and plate viscometer; assay type: physicochemical; conditions: 23.7° C.
# Procedure: Proton NMR spectra (^1H) were recorded using a Bruker 500 MHz nuclear magnetic resonance spectrometer. Solvent peaks were used as reference values for the reporting of chemical shifts. Elemental analyses were obtained using a Perkin Elmer 2100 Series II CHN/S Analyzer (Waltham, Mass., USA). Mass spectra were obtained using an Agilent 6230 TOF LC/MS (Santa Clara, Calif., USA). Viscosity measurements were obtained using a Wells/Brookfield DV1 cone and plate viscometer using a CPA-51Z cone spindle. Each MIL was dried in a vacuum oven for 48 hours at 50° C. ensuring any water or residual solvents were completely removed from the MILs. Sample volumes of 0.5 mL were used for all MILs at a temperature (23.7° C.).
# E. coli [2] = test: MIL-based extraction of viable E. coli, selective culture and colony enumeration; conditions: for visible colonies after back-extraction with LB media and culture on selective agar: aqueous solutions of 1.68×10^5 CFUs mL^−1
# Procedure: For each cell extraction experiment, 2 mL of sterile LB media with 100 μg mL^−1 carbenicillin was inoculated with 0.5 μL of E. coli glycerol stock and incubated overnight at 37° C. and 225 rpm. The overnight culture was centrifuged at 2820 g for 8 min and the supernatant discarded. The cells were then vortexed for 15 s in 2 mL of deionized water and centrifuged once again at 2820 g for 8 min. Following a total of three washes, the cells were re-suspended in 1 mL of deionized water. The concentration of cells within the suspension was initially determined by measuring the optical density of the sample at 600 nm (OD600), where an OD600 equal to 1.000 represents 8×10^8 E. coli cells mL^−1. The bacterial suspension was diluted to an OD600 value of 0.021 (1.68×10^7 cells mL^−1), after which 10-fold serial dilutions were performed to yield the desired sample concentration. Since the sample concentrations were below the detection limit of the spectrophotometer, the final concentration of each sample (in CFUs mL^−1) was obtained using a plate counting method. Briefly, 15 μL of diluted cell suspension were mixed with 985 μL of LB media and vortexed for 3 min. A […] aliquot of the suspension was spread onto a selective LB agar plate with 100 μg mL^−1 carbenicillin and incubated overnight at 37° C. to obtain visible colonies.
# (§1) A general schematic for the MIL-based cell extraction procedure is depicted in FIG. 10. In a 4 mL screw cap glass vial, a controlled volume (e.g., 10 μL) of MIL was added to 2 mL of diluted cell suspension and dispersed into microdroplets by vortex agitation for 15-120 s. Following the dispersive extraction, a 0.9 T magnetic field was applied to collect the cell-enriched MIL extraction phase. After the aqueous phase was decanted, the MIL was subjected to a static wash with 2 mL of deionized water to ensure that residual cell suspension was removed. The extracted E. coli was recovered from the MIL solvent by vortexing the MIL in 1 mL of LB media from 30 to 300 s. Following back-extraction, aliquots of the cell-enriched LB media were cultured on selective agar as well as analyzed by PCR.
# To detect viable bacteria recovered from the MIL extraction solvent, a culture-based method selective for E. coli transformants was employed. Following MIL-based extraction, a 100 μL aliquot of the LB back-extraction solution was plated on LB agar containing 100 μg mL^−1 carbenicillin and incubated overnight at 37° C. Visible colonies were counted, tabulated, and compared to the colonies obtained for the sample prior to extraction. The enrichment factor (EF) from the MIL-based extraction was calculated by Equation 1, where CMIL is the concentration of CFUs within the MIL extraction phase and CS represents the concentration of CFUs in the bacterial suspension prior to extraction. EF=CMIL/CS Equation 1
# To determine if MILs can extract viable E. coli cells, aqueous solutions of 1.68×10^5 CFUs mL^−1 were extracted with each of the seven MILs using an approach that is similar to one depicted in FIG. 10. […] [Co(hfacac)3^−] MILs with the greatest number of colonies obtained from the Ni(II)-based MIL extractions.
# [3] = 1 second vial inversion (viscosity comparison); assay type: physicochemical; conditions: 1 second inversion of each MIL
# Description: FIG. 2 compares the viscosities of [P66614^+]2[MnCl4^2−], [P66614^+][Ni(hfacac)3^−], and [P66614^+][Nd(hfacac)4^−] by performing a 1 second inversion of each MIL.
# [4] = Magnetic susceptibility, SQUID magnetometer; assay type: physicochemical
# Procedure: The μeff values for each exemplary MIL were determined using a Quantum Design MPMS SQUID magnetometer following procedures similar to those previously reported. (Y. Mudryk, P. Manfrinetti, V. Smetana, J. Liu, M. L. Fornasini, A. Provino, V. K. Pecharsky, G. J. Miller and K. A. Gschneidner, J. Alloys Compd, 2013, 557, 252-260).
# E. coli [5] = test: MIL-based extraction of viable E. coli, selective culture and colony enumeration; conditions: extraction time 30 s to 300 s
# E. coli [6] = test: PCR amplification of LB back-extraction solution after MIL-based extraction
# Procedure: as §1
# Following the recovery of E. coli cells from the MIL extraction phase, an aliquot of the LB back-extraction solution was analyzed by PCR. […] The thermal protocol used for amplification of the MTAP gene was as follows: 5 min initial denaturation at 95° C. followed by 30 cycles of 30 s denaturation at 95° C., 45 s annealing at 54° C., and elongation for 45 s at 72° C.
# After thermal cycling, the PCR products were mixed with 10 μL of bromophenol blue tracking dye solution (30% glycerol v/v) and loaded on a 1% agarose gel stained with SYBR Safe DNA gel stain. The PCR amplicon was subjected to electrophoresis at approximately 4 V cm^−1 and subsequently visualized using a transilluminator.
# To improve detection limits, cells were recovered from the MIL phase using […] and a 1 μL aliquot of LB media was analyzed by PCR amplification. […] MILs as extraction media.
# MIL. […] 1999; 37:2479-82). It should be noted that PCR assays are unable to distinguish between live and dead cells and, therefore, are complementary to microbiological culture for the determination of viable cells in a sample.
# E. coli K12 cells = assay type: cell-based
# Procedure: Since culture-based methods are contingent upon the isolation of viable bacteria, the detection of E. coli following MIL-based cell extraction is influenced by the cytotoxicity of MILs. To study the effect of MILs on the growth of E. coli, a 1 mL aliquot of LB media was inoculated with 8.0×10^2±0.5×10^2 CFUs mL^−1 and spiked with approximately 10 μL of a MIL. The mixture was agitated by vortex to simulate the recovery procedure after which a 100 μL aliquot of the suspension was plated on selective agar.
# [7] = Pipette transfer at room temperature (preliminary viscosity testing); assay type: physicochemical; conditions: neat MIL, without heating
# Procedure: (§2) Pairing of intermediate 1a to an imidazolium-based cation was carried out for preliminary viscosity and hydrophobicity testing. A metathesis reaction was performed between 1-(6-hydroxyhexyl)-3-methylimidazolium chloride [MC6OHIM^+][Cl^−] and intermediate 1a to form [MC6OHIM^+] [Co(hfacac)3^−]. […] Since the broad applicability of hydrophobic MILs is very much dependent upon the ease with which they can be transferred using traditional liquid handling methods, the [P66614^+] cation was selected for preparation of the hfacac-based MILs.
# [8] = Water solubility observation of intermediates and preliminary MILs (hydrophobicity testing); assay type: physicochemical; conditions: color change in the aqueous solution two hours after addition of the MIL
# Procedure: The [P66614^+][Cl^−] IL is commercially available.
# as §2
# [9] = Solubility of MILs in organic solvents (solvent miscibility); assay type: physicochemical; conditions: S with footnotes b-e: organic solvents and water, MIL to solvent ratio
# Description: Owing to their unique solvation capabilities and high thermal stability, ILs have been successfully employed in organic synthesis either as reaction media or catalysts. An evaluation of the hydrophobic MIL solubility in a wide range of organic solvents may provide a fundamental understanding into their solvent properties. This could be instrumental for designing MIL-based reaction media, where the MIL can be selectively separated from the reaction products using an external magnetic field. […] The transition-metal based […] fully miscible in all of the organic solvents except DMSO. […] However, as the polarity value of the solvent drops below 0.117, the transition-metal based MILs show decreased solubilities at a 10% (v/v) MIL to solvent ratio. […] The solubility of these MILs in many different organic solvents adds to their versatility and use in numerous applications.
# E. coli [10] = test: Direct PCR amplification of cell-enriched MIL phase; conditions: 0.5 μL cell-enriched MIL phase directly in PCR mixture
# Procedure: Nucleic acid-based methods (e.g., PCR) have become increasingly popular for the detection of pathogens in food, environmental, and clinical samples to increase sample throughput and achieve lower detection limits. […] [Co(hfacac)3^−] MIL under optimized conditions. After extraction, 0.5 μL of the cell-enriched MIL phase was directly transferred into the PCR reagent mixture and heated at 95° C. for 5 min to induce cell lysis and the release of nucleic acids into solution. […] While the direct PCR detection modality provided a rapid assay for the detection of E. coli, the method was only suitable for the detection of relatively large quantities of cells (approximately 10^7 CFUs mL^−1) in aqueous samples likely due to inhibition caused by the MIL.
compound,measurement,setting,value
"CCCCCCCCCCCCCC[P+](CCCCCC)(CCCCCC)CCCCCC.O=C(C=C([O-])C(F)(F)F)C(F)(F)F.O=C(C=C([O-])C(F)(F)F)C(F)(F)F.O=C(C=C([O-])C(F)(F)F)C(F)(F)F.[Ni+2] [MIL 3, [P66614^+] tris(hexafluoroacetylaceto)nickelate(II)]",viscosity,[1],927 cP
same,change in EF with SOC media as back-extraction solution,E. coli [2]; 120 s back-extraction,no change in the EF was observed
same,enrichment factor (EF),"E. coli [2]; 120 s back-extraction in LB media, 30 s extraction",15.4±0.8
same,enrichment factor (EF),"E. coli [2]; MIL volume of 5 μL, cell suspension at 1.68×10^4 CFUs mL^−1",44.6±5.2
same,visible colonies after back-extraction with LB media and culture on selective agar,E. coli [2],visible colonies were observed
same,colonies with deionized water or 10 mM Tris-HCl (pH 8) as back-extraction solution,E. coli [2]; culture on selective agar,no detectable colonies
same,lowest E. coli concentration detected in aqueous solution,"E. coli [2]; optimized conditions, viable cells, culture on selective agar",1.68×10^4 CFUs mL^−1
same,movement down the vial,[3],flow easily toward the bottom of the vial
same,μeff,[4]; at lower temperatures,2.8 μB
same,enrichment factor (EF),E. coli [5],approximately 15
same,amplicon after extraction of cell filtrate (cell-free DNA),E. coli [6],no amplicon was detected
same,E. coli concentration at which bacterial pDNA was detected by PCR,"E. coli [6]; cell recovery in LB media prior to PCR, 2 mL sample",1.68×10^4 CFUs mL^−1
same,influence on the growth of E. coli,"E. coli K12 cells; LB media with 8.0×10^2 CFUs mL^−1, approximately 10 μL of MIL, compared to unexposed standard",little to no influence on the growth of E. coli
C[n+]1ccn(CCCCCCO)c1.O=C(C=C([O-])C(F)(F)F)C(F)(F)F.O=C(C=C([O-])C(F)(F)F)C(F)(F)F.O=C(C=C([O-])C(F)(F)F)C(F)(F)F.[Co+2] [[MC6OHIM^+] [Co(hfacac)3^−]],transfer with a pipette,[7],could not be transferred with a pipette
same,solubility in water,[8],soluble in water
CCCCCCCCCCCCCC[P+](CCCCCC)(CCCCCC)CCCCCC [compound 1],viscosity,[1],575.8 cP
same,Viable Bacteria,"E. coli [2]; extraction of E. coli from aqueous samples, 1.68×10^5 CFUs mL^−1",No
same,"μeff, effective magnetic moment","[4]; from magnetic susceptibility data, SQUID",4.3 μB
same,Solubility,[9],"S^b,c,e"
same,Cytotoxicity to E. coli,E. coli K12 cells,Yes
CCCCCCCCCCCCCC[P+](CCCCCC)(CCCCCC)CCCCCC.O=C(C=C([O-])C(F)(F)F)C(F)(F)F.O=C(C=C([O-])C(F)(F)F)C(F)(F)F.O=C(C=C([O-])C(F)(F)F)C(F)(F)F.[Co+2] [[P66614^+] [Co(hfacac)3^−]],visible colonies after back-extraction with LB media and culture on selective agar,E. coli [2],visible colonies were observed
same,quantity of cells detectable by direct PCR,E. coli [10],approximately 10^7 CFUs mL^−1
